≈ marks a conversion by molar mass, not a printed value.

The text below walks through data of ChEMBL document CHEMBL5260814, “Design strategies in the prodrugs of HIV-1 protease inhibitors to improve the pharmaceutical properties” (Eur J Med Chem, 2017).

Data set [1] can be described thus: Cmax in rat in presence of Ritonavir. Particulars: in vivo. The format is ADME.
The nature of data set [2]: AUC in rat in presence of Ritonavir. The format is ADME. On the set-up: concentration or dose not given beside the values. Particulars: in vivo.
Data set [3] is described as follows: Solubility of compound. It is filed as physicochemical.
Data set [4] can be described thus: Water solubility of compound. It is filed as physicochemical.

Regarding `Cc1nc(COc2ccc(C[C@H](NC(=O)O[C@H]3CO[C@H]4OCC[C@H]43)[C@@H](CN(CC(C)C)S(=O)(=O)c3ccc4c(c3)OCO4)OC(=O)CO[n+]3ccccc3)cc2)cs1`, the Cmax in data set [1] (read-out: Cmax) amounted to 272 ng/mL. For the same molecule, in data set [2] (read-out: AUC), the AUC is more than 7700 ng·h/mL.
In data set [3], `Cc1cccc(C)c1OCC(=O)N[C@@H](Cc1ccccc1)[C@H](OC(=O)CCC(=O)NCCN1CCCCC1)C(=O)N1CSC(C)(C)[C@H]1C(=O)NC(C)(C)C` returned a solubility of 47.8 mg/mL (≈ 62.4 mM).
Same read-out and setting: the same measure for `Cc1cccc(C)c1OCC(=O)N[C@@H](Cc1ccccc1)[C@H](OC(=O)CCC(=O)NCCCN1CCOCC1)C(=O)N1CSC(C)(C)[C@H]1C(=O)NC(C)(C)C`: 73.6 mg/mL (≈ 94.1 mM).
With `Cc1nc(COc2ccc(C[C@H](NC(=O)O[C@H]3CO[C@H]4OCC[C@H]43)[C@@H](CN(CC(C)C)S(=O)(=O)c3ccc4c(c3)OCO4)OC(=O)COC(=O)[C@@H](N)CC(C)C)cc2)cs1`, in data set [1] (read-out: Cmax), the Cmax was 776 ng/mL. The AUC in data set [2] (read-out: AUC) is 3960 ng·h/mL.
For `Cc1nc(COc2ccc(C[C@H](NC(=O)O[C@H]3CO[C@H]4OCC[C@H]43)[C@@H](CN(CC(C)C)S(=O)(=O)c3ccc4c(c3)OCO4)OC(=O)COCCOCC(=O)N(C)CCc3ccccn3)cc2)cs1` the same measures were 513 ng/mL and 4220 ng·h/mL.
In data set [3], `Cc1cccc(C)c1OCC(=O)N[C@@H](Cc1ccccc1)[C@H](OC(=O)CCC(=O)NCCN)C(=O)N1CSC(C)(C)[C@H]1C(=O)NC(C)(C)C` displayed a solubility of 77.1 mg/mL (≈ 110 mM).
On to `CNCC(=O)OCC(=O)O[C@H](CN(CC(C)C)S(=O)(=O)c1ccc2c(c1)OCO2)[C@H](Cc1ccc(OCc2csc(C)n2)cc1)NC(=O)O[C@H]1CO[C@H]2OCC[C@H]21`, for which the Cmax in data set [1] (read-out: Cmax) came out at 356 ng/mL. Besides, in data set [2] (read-out: AUC), the AUC came to 5600 ng·h/mL.
For `Cc1nc(COc2ccc(C[C@H](NC(=O)O[C@H]3CO[C@H]4OCC[C@H]43)[C@@H](CN(CC(C)C)S(=O)(=O)c3ccc4c(c3)OCO4)OC(=O)CONC(=N)N)cc2)cs1` the same measures were 460 ng/mL and more than 5000 ng·h/mL.
The corresponding values for `Cc1nc(COc2ccc(C[C@H](NC(=O)O[C@H]3CO[C@H]4OCC[C@H]43)[C@@H](CN(CC(C)C)S(=O)(=O)c3ccc4c(c3)OCO4)OC(=O)COCCn3ccnc3)cc2)cs1` are 322 ng/mL and more than 5000 ng·h/mL.
`CC(C)(C)NC(=O)[C@@H]1CSCN1C(=O)[C@@H](O)[C@H](Cc1ccccc1)NC(=O)COc1ccccc1` displayed a solubility in data set [4] of 0.123 mg/mL (≈ 0.246 mM).
As to `Cc1nc(COc2ccc(C[C@H](NC(=O)O[C@H]3CO[C@H]4OCC[C@H]43)[C@@H](CN(CC(C)C)S(=O)(=O)c3ccc4c(c3)OCO4)OC(=O)COC(=O)[C@@H](N)CCCCN)cc2)cs1`, the Cmax in data set [1] (read-out: Cmax) was found to be 517 ng/mL. In addition, the AUC in data set [2] (read-out: AUC) came to 4220 ng·h/mL.
As to `Cc1nc(COc2ccc(C[C@H](NC(=O)O[C@H]3CO[C@H]4OCC[C@H]43)[C@H](O)CN(CC(C)C)S(=O)(=O)c3ccc4c(c3)OCO4)cc2)cs1` [BRECANAVIR], in data set [1], the Cmax was found to be 696 ng/mL. The AUC in data set [2] turned out to be 1960 ng·h/mL.
Turning to `COCCN(C)CC(=O)OCC(=O)O[C@H](CN(CC(C)C)S(=O)(=O)c1ccc2c(c1)OCO2)[C@H](Cc1ccc(OCc2csc(C)n2)cc1)NC(=O)O[C@H]1CO[C@H]2OCC[C@H]21`, the Cmax in data set [1] (read-out: Cmax) was determined as 407 ng/mL. In addition, the AUC in data set [2] (read-out: AUC) is 4710 ng·h/mL.
Molecule `Cc1ccccc1OCC(=O)N[C@@H](Cc1ccccc1)[C@H](O)C(=O)N1CSC[C@H]1C(=O)NC(C)(C)C` gave a solubility in data set [4] of 0.042 mg/mL (≈ 0.0818 mM).
On to `Cc1nc(COc2ccc(C[C@H](NC(=O)O[C@H]3CO[C@H]4OCC[C@H]43)[C@@H](CN(CC(C)C)S(=O)(=O)c3ccc4c(c3)OCO4)OC(=O)COC(=O)CN3CCOCC3)cc2)cs1`, for which the Cmax in data set [1] (read-out: Cmax) was 1280 ng/mL. Besides, the AUC in data set [2] (read-out: AUC) was more than 4000 ng·h/mL.
In the case of `Cc1ccccc1OCC(=O)N[C@@H](Cc1ccccc1)[C@H](O)C(=O)N1CSC(C)(C)[C@H]1C(=O)NC(C)(C)C`, in data set [4], the solubility amounted to 0.018 mg/mL (≈ 0.0332 mM).
In data set [3], `Cc1cccc(C)c1OCC(=O)N[C@@H](Cc1ccccc1)[C@H](OC(=O)CCCC(=O)NCCN1CCOCC1)C(=O)N1CSC(C)(C)[C@H]1C(=O)NC(C)(C)C` came in with a solubility of 57.1 mg/mL (≈ 73 mM).
On the same count and under the same terms, the value for `Cc1cccc(C)c1OCC(=O)N[C@@H](Cc1ccccc1)[C@H](OC(=O)CCC(=O)NCc1cccnc1)C(=O)N1CSC(C)(C)[C@H]1C(=O)NC(C)(C)C` was 30.3 mg/mL (≈ 40.6 mM); that for `Cc1cccc(C)c1OCC(=O)N[C@@H](Cc1ccccc1)[C@H](OC(=O)CCC(=O)NCCN1CCOCC1)C(=O)N1CSC(C)(C)[C@H]1C(=O)NC(C)(C)C` was 53.2 mg/mL (≈ 69.3 mM).
Take `CCN(CC)CC(=O)OCC(=O)O[C@H](CN(CC(C)C)S(=O)(=O)c1ccc2c(c1)OCO2)[C@H](Cc1ccc(OCc2csc(C)n2)cc1)NC(=O)O[C@H]1CO[C@H]2OCC[C@H]21`: in data set [1] (read-out: Cmax), the Cmax was 318 ng/mL. Further, the AUC in data set [2] (read-out: AUC) worked out at 3690 ng·h/mL.
In the case of `Cc1cccc(C)c1OCC(=O)N[C@@H](Cc1ccccc1)[C@H](O)C(=O)N1CSC[C@H]1C(=O)NC(C)(C)C`, the solubility in data set [4] turned out to be 0.023 mg/mL (≈ 0.0436 mM).
`Cc1cccc(C)c1OCC(=O)N[C@@H](Cc1ccccc1)[C@H](OC(=O)CCC(=O)NCCN1CCCC1)C(=O)N1CSC(C)(C)[C@H]1C(=O)NC(C)(C)C`: in data set [3], the solubility came to 93.8 mg/mL (≈ 125 mM).
As to `COCCN(CCOC)CC(=O)OCC(=O)O[C@H](CN(CC(C)C)S(=O)(=O)c1ccc2c(c1)OCO2)[C@H](Cc1ccc(OCc2csc(C)n2)cc1)NC(=O)O[C@H]1CO[C@H]2OCC[C@H]21`, the Cmax in data set [1] (read-out: Cmax) came to 1280 ng/mL. Moreover, in data set [2] (read-out: AUC), the AUC is more than 4000 ng·h/mL.
In data set [4], `CC(C)(C)NC(=O)[C@H]1N(C(=O)[C@@H](O)[C@H](Cc2ccccc2)NC(=O)COc2ccccc2)CSC1(C)C` registered a solubility of 0.047 mg/mL (≈ 0.0891 mM).
On to `Cc1nc(COc2ccc(C[C@H](NC(=O)O[C@H]3CO[C@H]4OCC[C@H]43)[C@@H](CN(CC(C)C)S(=O)(=O)c3ccc4c(c3)OCO4)OC(=O)COCC(=O)Nc3ccn[nH]3)cc2)cs1`, for which the highest concentration (Cmax) in data set [1] (read-out: Cmax) worked out at 603 ng/mL. For the same molecule, the AUC in data set [2] (read-out: AUC) came out at 7040 ng·h/mL.
For `Cc1nc(COc2ccc(C[C@H](NC(=O)O[C@H]3CO[C@H]4OCC[C@H]43)[C@@H](CN(CC(C)C)S(=O)(=O)c3ccc4c(c3)OCO4)OC(=O)COC(=O)CN(C)CCc3ccccn3)cc2)cs1` the same measures were 791 ng/mL and 5350 ng·h/mL.
`Cc1cccc(C)c1OCC(=O)N[C@@H](Cc1ccccc1)[C@H](OC(=O)CCC(=O)NCc1ccccn1)C(=O)N1CSC(C)(C)[C@H]1C(=O)NC(C)(C)C` registered a solubility in data set [3] of 31.9 mg/mL (≈ 42.8 mM).
Turning to `Cc1nc(COc2ccc(C[C@H](NC(=O)O[C@H]3CO[C@H]4OCC[C@H]43)[C@@H](CN(CC(C)C)S(=O)(=O)c3ccc4c(c3)OCO4)OC(=O)COCC(=O)NCc3ccccn3)cc2)cs1`, in data set [1] (read-out: Cmax), the Cmax is 640 ng/mL. In addition, the AUC in data set [2] (read-out: AUC) was 6810 ng·h/mL.
In the case of `Cc1cccc(C)c1OCC(=O)N[C@@H](Cc1ccccc1)[C@H](OC(=O)CCCC(=O)NCCN)C(=O)N1CSC(C)(C)[C@H]1C(=O)NC(C)(C)C`, the solubility in data set [3] came to 50.3 mg/mL (≈ 70.7 mM).
Turning to `Cc1cccc(CN(C)CCOCC(=O)O[C@H](CN(CC(C)C)S(=O)(=O)c2ccc3c(c2)OCO3)[C@H](Cc2ccc(OCc3csc(C)n3)cc2)NC(=O)O[C@H]2CO[C@H]3OCC[C@H]32)n1`, the Cmax in data set [1] (read-out: Cmax) was found to be 401 ng/mL. Moreover, the AUC in data set [2] (read-out: AUC) turned out to be 4020 ng·h/mL.
In turn, `Cc1cccc(C)c1OCC(=O)N[C@@H](Cc1ccccc1)[C@H](OC(=O)CCC(=O)NCc1ccncc1)C(=O)N1CSC(C)(C)[C@H]1C(=O)NC(C)(C)C` showed a solubility in data set [3] of 91.5 mg/mL (≈ 123 mM).

As usually defined, the Cmax is the highest concentration seen after dosing. For orientation: AUC means the area under the concentration-time curve, a measure of exposure. A word on the solubility: it is the dissolved amount per volume that the medium holds.
